Laboratory results reported in PubChem BioAssay AID1963443 (Molecular Pharmacology Branch, DTP, NCI, 2024).
Blank lines part the entries; values can stand above or below the compound they belong to.

Tested on: MDA-MB-231 complex spheroids, growth inhibition
Test: Anticancer human tumor MDA-MB-231 cell line growth inhibition [Asc];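 further: spheroids exposed to compounds for 7 days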
Details: for IC50: curve of first compound; for viability, T/C: stronger effect = lower value
Outline: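 Stromal components (HUVEC and hMSC) are co-assembled with the cancer cells into multicellular spheroids. Drugs are then added singly or paired, at concentrations falling by half-log increments from a clinically achievable maximum, capped at 10 microM without known Cmax.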

[1] = second compound 0.01 µM, first compound 0.0316 µM
[2] = second compound 0.01 µM, first compound 0.1 µM
[3] = second compound 0.01 µM, first compound 0.316 µM
[4] = second compound 0.01 µM, first compound 1 µM
[5] = second compound 0.0316 µM, first compound 0.0316 µM
[6] = second compound 0.0316 µM, first compound 0.1 µM
[7] = second compound 0.0316 µM, first compound 0.316 µM
[8] = second compound 0.0316 µM, first compound 1 µM
[9] = second compound 0.1 µM, first compound 0.0316 µM
[10] = second compound 0.1 µM, first compound 0.1 µM
[11] = second compound 0.1 µM, first compound 0.316 µM
[12] = second compound 0.1 µM, first compound 1 µM
[13] = second compound 0.316 µM, first compound 0.0316 µM
[14] = second compound 0.316 µM, first compound 0.1 µM
[15] = second compound 0.316 µM, first compound 0.316 µM
[16] = second compound 0.316 µM, first compound 1 µM
[17] = second compound 1 µM, first compound 0.0316 µM
[18] = second compound 1 µM, first compound 0.1 µM
[19] = second compound 1 µM, first compound 0.316 µM
[20] = second compound 1 µM, first compound 1 µM
[21] = second compound 0.01 µM, first compound 0.00316 µM
[22] = second compound 0.01 µM, first compound 0.01 µM
[23] = second compound 0.0316 µM, first compound 0.00316 µM
[24] = second compound 0.0316 µM, first compound 0.01 µM
[25] = second compound 0.1 µM, first compound 0.00316 µM
[26] = second compound 0.1 µM, first compound 0.01 µM
[27] = second compound 0.316 µM, first compound 0.00316 µM
[28] = second compound 0.316 µM, first compound 0.01 µM
[29] = second compound 1 µM, first compound 0.00316 µM
[30] = second compound 1 µM, first compound 0.01 µM

- IC50 (second compound 0.01 µM): < 31.6 nM
- IC50 (second compound 0.0316 µM): < 31.6 nM
- IC50 (second compound 0.1 µM): < 31.6 nM
- IC50 (second compound 0.316 µM): < 31.6 nM
- IC50 (second compound 1 µM): < 31.6 nM
Compound: C=CC(=O)N1CCN(c2nc(=O)n(-c3c(C)ccnc3C(C)C)c3nc(-c4c(O)cccc4F)c(F)cc23)C(C)C1 (stereo not given) + CNC(C)C(=O)NC1CN(S(=O)(=O)c2cccc(S(=O)(=O)N3CCC4CCC(C(=O)NC(c5ccccc5)c5ccccc5)N4C(=O)C(NC(=O)C(C)NC)C3)c2)CCC2CCC(C(=O)NC(c3ccccc3)c3ccccc3)N2C1=O
- viability, T/C [1]: 4.27%
- viability, T/C [2]: 4.47%
- viability, T/C [3]: 3.48%
- viability, T/C [4]: 4.14%
- viability, T/C (second compound 0.01 µM, first compound 3.16 µM): 3.21%
- viability, T/C (second compound 0.01 µM, first compound 10 µM): 2.6%
- viability, T/C [5]: 1.6%
- viability, T/C [6]: 1.97%
- viability, T/C [7]: 3.62%
- viability, T/C [8]: 3.15%
- viability, T/C (second compound 0.0316 µM, first compound 3.16 µM): 2.97%
- viability, T/C (second compound 0.0316 µM, first compound 10 µM): 3.77%
- viability, T/C [9]: 1.84%
- viability, T/C [10]: 1.71%
- viability, T/C [11]: 1.31%
- viability, T/C [12]: 0.87%
- viability, T/C (second compound 0.1 µM, first compound 3.16 µM): 2.25%
- viability, T/C (second compound 0.1 µM, first compound 10 µM): 1.71%
- viability, T/C [13]: 1.02%
- viability, T/C [14]: 1.06%
- viability, T/C [15]: 2.22%
- viability, T/C [16]: 1.43%
- viability, T/C (second compound 0.316 µM, first compound 3.16 µM): 1.4%
- viability, T/C (second compound 0.316 µM, first compound 10 µM): 2.33%
- viability, T/C [17]: 1.09%
- viability, T/C [18]: 1.13%
- viability, T/C [19]: 1.81%
- viability, T/C [20]: 1.73%
- viability, T/C (second compound 1 µM, first compound 3.16 µM): 1.35%
- viability, T/C (second compound 1 µM, first compound 10 µM): 3.82%

- IC50 (second compound 0.01 µM): < 3.16 nM
- IC50 (second compound 0.0316 µM): < 3.16 nM
- IC50 (second compound 0.1 µM): < 3.16 nM
- IC50 (second compound 0.316 µM): < 3.16 nM
- IC50 (second compound 1 µM): < 3.16 nM
Compound: COc1c(OCCCN2CCOCC2)ccc2c3n(c(=NC(=O)c4cnc(N)nc4)nc12)CCN3 + CNC(C)C(=O)NC1CN(S(=O)(=O)c2cccc(S(=O)(=O)N3CCC4CCC(C(=O)NC(c5ccccc5)c5ccccc5)N4C(=O)C(NC(=O)C(C)NC)C3)c2)CCC2CCC(C(=O)NC(c3ccccc3)c3ccccc3)N2C1=O
- viability, T/C [21]: 3.3%
- viability, T/C [22]: 4.73%
- viability, T/C [1]: 3.39%
- viability, T/C [2]: 3.64%
- viability, T/C [3]: 2.42%
- viability, T/C [4]: 3.12%
- viability, T/C [23]: 2.47%
- viability, T/C [24]: 3.12%
- viability, T/C [5]: 1.48%
- viability, T/C [6]: 1.69%
- viability, T/C [7]: 1.21%
- viability, T/C [8]: 1.12%
- viability, T/C [25]: 2.16%
- viability, T/C [26]: 2.68%
- viability, T/C [9]: 2.19%
- viability, T/C [10]: 1.47%
- viability, T/C [11]: 1.18%
- viability, T/C [12]: 0.78%
- viability, T/C [27]: 1.32%
- viability, T/C [28]: 1.65%
- viability, T/C [13]: 1.85%
- viability, T/C [14]: 1.41%
- viability, T/C [15]: 0.21%
- viability, T/C [16]: 0.62%
- viability, T/C [29]: 1.05%
- viability, T/C [30]: 1.1%
- viability, T/C [17]: 0.84%
- viability, T/C [18]: 0.98%
- viability, T/C [19]: 0.77%
- viability, T/C [20]: 0.29%

- IC50 (second compound 0.01 µM): < 0.949 nM
- IC50 (second compound 0.0316 µM): < 0.949 nM
- IC50 (second compound 0.1 µM): < 0.949 nM
- IC50 (second compound 0.316 µM): < 0.949 nM
- IC50 (second compound 1 µM): < 0.949 nM
Compound: NC(=O)C(=Cn1cnc(-c2cc(C(F)(F)F)cc(C(F)(F)F)c2)n1)c1cncnc1 + CNC(C)C(=O)NC1CN(S(=O)(=O)c2cccc(S(=O)(=O)N3CCC4CCC(C(=O)NC(c5ccccc5)c5ccccc5)N4C(=O)C(NC(=O)C(C)NC)C3)c2)CCC2CCC(C(=O)NC(c3ccccc3)c3ccccc3)N2C1=O
- viability, T/C (second compound 0.01 µM, first compound 0.000949 µM): 3.47%
- viability, T/C (second compound 0.01 µM, first compound 0.003 µM): 3.32%
- viability, T/C (second compound 0.01 µM, first compound 0.00949 µM): 2.92%
- viability, T/C (second compound 0.01 µM, first compound 0.03 µM): 3.34%
- viability, T/C (second compound 0.01 µM, first compound 0.0949 µM): 3.01%
- viability, T/C (second compound 0.01 µM, first compound 0.3 µM): 1.3%
- viability, T/C (second compound 0.0316 µM, first compound 0.000949 µM): 1.67%
- viability, T/C (second compound 0.0316 µM, first compound 0.003 µM): 1.38%
- viability, T/C (second compound 0.0316 µM, first compound 0.00949 µM): 1.57%
- viability, T/C (second compound 0.0316 µM, first compound 0.03 µM): 1.39%
- viability, T/C (second compound 0.0316 µM, first compound 0.0949 µM): 1.1%
- viability, T/C (second compound 0.0316 µM, first compound 0.3 µM): 0.42%
- viability, T/C (second compound 0.1 µM, first compound 0.000949 µM): 1.05%
- viability, T/C (second compound 0.1 µM, first compound 0.003 µM): 1.72%
- viability, T/C (second compound 0.1 µM, first compound 0.00949 µM): 1.5%
- viability, T/C (second compound 0.1 µM, first compound 0.03 µM): 1.76%
- viability, T/C (second compound 0.1 µM, first compound 0.0949 µM): 0.66%
- viability, T/C (second compound 0.1 µM, first compound 0.3 µM): 0.29%
- viability, T/C (second compound 0.316 µM, first compound 0.000949 µM): 1.29%
- viability, T/C (second compound 0.316 µM, first compound 0.003 µM): 1.22%
- viability, T/C (second compound 0.316 µM, first compound 0.00949 µM): 1.39%
- viability, T/C (second compound 0.316 µM, first compound 0.03 µM): 1.21%
- viability, T/C (second compound 0.316 µM, first compound 0.0949 µM): 0.77%
- viability, T/C (second compound 0.316 µM, first compound 0.3 µM): 0.57%
- viability, T/C (second compound 1 µM, first compound 0.000949 µM): 0.82%
- viability, T/C (second compound 1 µM, first compound 0.003 µM): 1.08%
- viability, T/C (second compound 1 µM, first compound 0.00949 µM): 1.07%
- viability, T/C (second compound 1 µM, first compound 0.03 µM): 0.91%
- viability, T/C (second compound 1 µM, first compound 0.0949 µM): 0.91%
- viability, T/C (second compound 1 µM, first compound 0.3 µM): 0.37%

- IC50 (second compound 0.01 µM): < 0.316 nM
- IC50 (second compound 0.0316 µM): < 0.316 nM
- IC50 (second compound 0.1 µM): < 0.316 nM
- IC50 (second compound 0.316 µM): < 0.316 nM
- IC50 (second compound 1 µM): < 0.316 nM
Compound: NC1CCC(NC2CC2c2ccccc2)CC1 (stereo not given) + CNC(C)C(=O)NC1CN(S(=O)(=O)c2cccc(S(=O)(=O)N3CCC4CCC(C(=O)NC(c5ccccc5)c5ccccc5)N4C(=O)C(NC(=O)C(C)NC)C3)c2)CCC2CCC(C(=O)NC(c3ccccc3)c3ccccc3)N2C1=O
- viability, T/C (second compound 0.01 µM, first compound 0.000316 µM): 4.48%
- viability, T/C (second compound 0.01 µM, first compound 0.001 µM): 3.37%
- viability, T/C [21]: 3.36%
- viability, T/C [22]: 4.1%
- viability, T/C [1]: 4.51%
- viability, T/C [2]: 3.46%
- viability, T/C (second compound 0.0316 µM, first compound 0.000316 µM): 1.91%
- viability, T/C (second compound 0.0316 µM, first compound 0.001 µM): 3.37%
- viability, T/C [23]: 2.61%
- viability, T/C [24]: 2.96%
- viability, T/C [5]: 2.47%
- viability, T/C [6]: 2.27%
- viability, T/C (second compound 0.1 µM, first compound 0.000316 µM): 2.48%
- viability, T/C (second compound 0.1 µM, first compound 0.001 µM): 2.67%
- viability, T/C [25]: 3.07%
- viability, T/C [26]: 2.19%
- viability, T/C [9]: 2.11%
- viability, T/C [10]: 2.38%
- viability, T/C (second compound 0.316 µM, first compound 0.000316 µM): 1.42%
- viability, T/C (second compound 0.316 µM, first compound 0.001 µM): 3.18%
- viability, T/C [27]: 2.55%
- viability, T/C [28]: 0.99%
- viability, T/C [13]: 1.23%
- viability, T/C [14]: 0.81%
- viability, T/C (second compound 1 µM, first compound 0.000316 µM): 1.08%
- viability, T/C (second compound 1 µM, first compound 0.001 µM): 1.04%
- viability, T/C [29]: 1.62%
- viability, T/C [30]: 0.85%
- viability, T/C [17]: 0.86%
- viability, T/C [18]: 0.84%
